Data on 19 molecules can be found in patent US11306064B2, “Benzothia(di)azepine compounds and their use as bile acid modulators” (Albireo AB, priority 2018, dated 2022).

In one experiment the target is T1, Human LBAT (Homo sapiens, UniProt Q14973).
T1 construct: expressed in transfected cells; kept under Geneticin selection
T1 sequence (Q14973 1-349): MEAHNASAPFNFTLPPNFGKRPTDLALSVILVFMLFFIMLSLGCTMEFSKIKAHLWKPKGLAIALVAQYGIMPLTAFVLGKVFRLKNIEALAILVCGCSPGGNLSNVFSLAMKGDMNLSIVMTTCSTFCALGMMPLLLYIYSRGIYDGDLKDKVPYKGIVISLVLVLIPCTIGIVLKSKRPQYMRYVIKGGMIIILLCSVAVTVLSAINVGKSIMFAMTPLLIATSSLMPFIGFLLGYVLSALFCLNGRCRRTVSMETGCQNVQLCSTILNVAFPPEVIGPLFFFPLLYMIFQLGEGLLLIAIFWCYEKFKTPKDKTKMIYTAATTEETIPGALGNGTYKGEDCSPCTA
The experiment in a line: LBAT (h/m) assay: 3H-taurocholic acid uptake in human LBAT-overexpressing cells. Conditions: 0.3 μM 3H-taurocholic acid and 7.5 μM cold taurocholic acid, 20 minutes, read-out: hLBAT IC50. Type of experiment: cell-based. How it is done:
LBAT (h/m) Assay Protocol
20,000 cells (Human or Mouse LBAT-overexpressing cells) were seeded in 96-wells plate (Corning CLS3809) in 100 μL MEM-alpha medium (Gibco 12571-063) supplemented with 10% FBS (Gibco 10438026) containing Geneticin (Gibco 10131-027) (1 mg/mL) and incubated at 37° C. in 5% CO2 for 24 hours. After incubation, media was decanted from the wells and cells were washed two times with 300 μL of basal MEM-alpha medium (FBS-free). After decanting basal MEM-alpha medium each time, plates were tapped against paper towel to ensure maximum removal of residual media. For human LBAT, incubation mix was prepared by adding test inhibitor dilutions (3-fold serial dilution in DMSO (Sigma D2650), 10 points) in MEM-alpha (without FBS) containing 0.3 μM 3H-taurocholic acid (ARC ART-1368) and 7.5 μM cold taurocholic acid (Sigma T4009) (maintaining 0.2% final DMSO concentration). For mouse LBAT, incubation mix was prepared by adding test inhibitor dilutions (3-fold serial dilution in DMSO, 10 points) in MEM-alpha (without FBS) containing 0.3 μM 3H-taurocholic acid and 25 μM cold taurocholic acid maintaining 0.2% final DMSO concentration).
50 μL of incubation mix containing test inhibitors was then added to the wells (in duplicate) and the plates were incubated for 20 minutes in a CO2 incubator at 37° C. After incubation, the reaction was stopped by keeping the plates on ice water mix for 2-3 minutes and then the incubation mix was aspirated completely from the wells. The wells were washed two times with 250 μL of chilled unlabelled 1 mM taurocholic acid dissolved in HEPES (Gibco 15630080)-buffered (10 mM) HBSS (Gibco 14175079) (pH 7.4). The plates were tapped against a paper towel after every wash to ensure maximum removal of blocking buffer.
100 μL of MicroScint-20 (PerkinElmer 6013621) was added to the wells and kept overnight at room temperature before reading the plates in TopCount NXT™ Microplate Scintillation and Luminescence Counter from PerkinElmer under 3H Test protocol (set at 120 seconds reading time per well, with normal plate orientation).
(§1) Preparation of Test Compound Dilutions
(§2) All test compounds were provided in powder form at room temperature. 10 mM DMSO stocks of the test compounds were prepared, aliquoted and stored at −20° C. From the 10 mM DMSO stock of the compounds, a 3-fold serial dilution in DMSO was prepared to get a total of 10 dilutions of the test compounds. 0.5 μL of this dilution in DMSO was added to 250 μL of FBS-free basal media containing 3H-taurocholic acid and cold taurocholic acid to prepare the incubation mixture.

The target in a further experiment is T2, Human ASBT (Homo sapiens, UniProt Q12908).
T2 construct: expressed in transfected cells; kept under Puromycin selection
T2 sequence (Q12908 1-348): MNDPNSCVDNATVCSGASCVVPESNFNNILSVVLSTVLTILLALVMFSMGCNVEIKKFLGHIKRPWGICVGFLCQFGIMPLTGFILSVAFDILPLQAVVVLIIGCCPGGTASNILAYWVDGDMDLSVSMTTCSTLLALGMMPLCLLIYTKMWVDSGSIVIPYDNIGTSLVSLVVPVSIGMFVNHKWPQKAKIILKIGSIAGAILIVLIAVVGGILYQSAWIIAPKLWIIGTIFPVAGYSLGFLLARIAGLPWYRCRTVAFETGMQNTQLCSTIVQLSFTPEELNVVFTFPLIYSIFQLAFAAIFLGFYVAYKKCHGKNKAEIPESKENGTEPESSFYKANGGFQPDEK
Put plainly: ASBT (h/m) assay: 3H-taurocholic acid uptake in human ASBT-overexpressing cells. Type of experiment: cell-based. Conditions: 0.25 μM 3H-taurocholic acid and 5 μM cold taurocholic acid, 20 minutes, read-out: hASBT IC50. How it is done: ASBT (h/m) Assay Protocol
10,000 cells (Human or Mouse ASBT-overexpressing cells) were seeded in 96-wells plate (Corning CLS3809) in 200 μL MEM-alpha medium (Gibco 12571-063) supplemented with 10% FBS (Gibco 10438026) containing Puromycin (Gibco A1113803) (10 μg/mL) and incubated at 37° C. in 5% CO2 for 48 hours. After incubation, media was decanted from the wells and cells were washed two times with 300 μL of basal MEM-alpha medium (FBS-free). After decanting basal MEM-alpha medium each time, plates were tapped against paper towel to ensure maximum removal of residual media. Test inhibitor dilutions (highest test concentration being 10 μM, 3-fold serial dilution, 10 points) prepared in DMSO (Sigma D2650) were added in incubation mix (maintaining 0.2% final DMSO concentration) containing 0.25 μM 3H-taurocholic acid (ARC ART-1368) and 5 μM of cold taurocholic acid (Sigma T4009). 50 μL of incubation mix containing test inhibitors was then added to the wells (in duplicate) and the plates were incubated for 20 minutes in a CO2 incubator at 37° C. After incubation, the reaction was stopped by keeping the plates on ice water mix for 2-3 minutes and then the incubation mix was aspirated completely from the wells. The wells were washed two times with 250 μL of chilled unlabelled 1 mM taurocholic acid dissolved in HEPES (Gibco 15630080)-buffered (10 mM) HBSS (Gibco 14175079) (pH 7.4). The plates were tapped against a paper towel after every wash to ensure maximum removal of blocking buffer.
100 μL of MicroScint-20 (PerkinElmer 6013621) was added to the wells and kept overnight at room temperature before reading the plates in TopCount NXT™ Microplate Scintillation and Luminescence Counter from PerkinElmer under 3H Test protocol (set at 120 seconds reading time per well).
as §1, §2

As for `CCCCC1(CC)CN(c2ccccc2)c2cc(Br)c(O/C=C/C(=O)O)cc2S(=O)(=O)C1` (racemic) [Example 4, (E)-3-((7-bromo-3-butyl-3-ethyl-1,1-dioxido-5-phenyl-2,3,4,5-tetrahydro-1,5-benzothiazepin-8-yl)oxy)acrylic acid], the figures for the IC50 on Human LBAT and at Human ASBT were 218 nM and 167 nM, respectively.

With `CCCCC1(CC)CN(c2ccccc2)c2cc(SC)c(O/C=C\C(=O)O)cc2S(=O)(=O)C1` (racemic) [Example 59, (Z)-3-((3-butyl-3-ethyl-7-(methylthio)-1,1-dioxido-5-phenyl-2,3,4,5-tetrahydro-1,5-benzothiazepin-8-yl)oxy)acrylic acid], at Human ASBT, the IC50 is 85 nM.

For `CCCCC1(CC)CN(c2ccccc2)c2cc(SC)c(O/C=C/C(=O)O)cc2S(=O)(=O)N1` (racemic) [Example 76, (E)-3-((3-butyl-3-ethyl-7-(methylthio)-1,1-dioxido-5-phenyl-2,3,4,5-tetrahydro-1,2,5-benzothiadiazepin-8-yl)oxy)acrylic Acid], the figures for the IC50 at Human LBAT and on Human ASBT were 217 nM and 41 nM, respectively.

Regarding `CCCCC1(CC)CN(c2ccccc2)c2cc(NC)c(O/C=C/C(=O)O)cc2S(=O)(=O)C1` (racemic) [Example 91, (E)-3-((3-butyl-3-ethyl-7-(methylamino)-1,1-dioxido-5-phenyl-2,3,4,5-tetrahydro-1,5-benzothiazepin-8-yl)oxy)acrylic Acid], the IC50 at Human LBAT was 1300 nM; at Human ASBT, 41 nM.

As for `CCCCC1(CC)CN(c2ccccc2)c2cc(Br)c(O/C=C/C(=O)O)cc2S(=O)(=O)C1` (single isomer, unassigned) [Example 5, (E)-3-((7-bromo-3-butyl-3-ethyl-1,1-dioxido-5-phenyl-2,3,4,5-tetrahydro-1,5-benzothiazepin-8-yl)oxy)acrylic acid], the IC50 on Human LBAT came to 290 nM; at Human ASBT it was 1230 nM.

In the case of `CCCCC1(CC)CN(c2ccccc2)c2cc(SC)c(O/C=C/C(=O)O)cc2S(=O)(=O)C1` (single isomer, unassigned) [Example 17, (E)-3-((3-butyl-3-ethyl-7-(methylthio)-1,1-dioxido-5-phenyl-2,3,4,5-tetrahydro-1,5-benzothiazepin-8-yl)oxy)acrylic acid], at Human LBAT, the IC50 worked out at 116 nM.

Consider `CCCCC1(CC)CN(c2ccccc2)c2cc(Cl)c(O/C=C/C(=O)O)cc2S(=O)(=O)C1` (single isomer, unassigned) [Example 51, (E)-3-((3-butyl-7-chloro-3-ethyl-1,1-dioxido-5-phenyl-2,3,4,5-tetrahydro-1,5-benzothiazepin-8-yl)oxy)acrylic acid], for which the IC50 on Human LBAT was 96 nM.

In the case of `CCCC[C@@]1(CC)CN(c2ccccc2)c2cc(SC)c(O/C=C\C(=O)O)cc2S(=O)(=O)C1` (single isomer, unassigned) [Example 60], the IC50 at Human LBAT was found to be 4220 nM; at Human ASBT it was 39 nM.

Regarding `CCCC[C@]1(CC)CN(c2ccccc2)c2cc(SC)c(O/C=C\C(=O)O)cc2S(=O)(=O)C1` (single isomer, unassigned) [Example 61], on Human ASBT, the IC50 came to 1620 nM.

Take `CCCC[C@]1(CC)CN(c2ccccc2)c2cc(SC)c(O/C=C/C(=O)O)cc2S(=O)(=O)N1` (single isomer, unassigned) [Example 78]: the IC50 at Human LBAT stood at 96 nM; on Human ASBT, 156 nM.

As for `CCCC[C@@]1(CC)CN(c2ccccc2)c2cc(SC)c(O/C=C/C(=O)O)cc2S(=O)(=O)N1C` (single isomer, unassigned) [Example 89], the IC50 at Human LBAT is 290 nM; on Human ASBT, 2010 nM.

For the molecule `CCCC[C@@]1(CC)CN(c2ccccc2)c2cc(NC)c(O/C=C/C(=O)O)cc2S(=O)(=O)C1` (single isomer, unassigned) [Example 92], the 50% inhibitory concentration (IC50) at Human LBAT is 1470 nM; at Human ASBT, 748 nM.

With `CCCC[C@]1(CC)CN(c2ccccc2)c2cc(NC)c(O/C=C/C(=O)O)cc2S(=O)(=O)C1` (single isomer, unassigned) [Example 93], the IC50 on Human LBAT is 3160 nM; at Human ASBT, 52 nM.

Turning to `CCCC[C@]1(CC)CN(c2ccccc2)c2cc(F)c(O/C=C/C(=O)O)cc2S(=O)(=O)C1` (single isomer, unassigned) [Example 102], the results for the IC50 at Human LBAT and at Human ASBT were 298 nM and 3330 nM, respectively.

With `CCCC[C@@]1(CC)CN(c2ccccc2)c2cc(F)c(O/C=C/C(=O)O)cc2S(=O)(=O)C1` (single isomer, unassigned) [Example 103], the IC50 on Human LBAT came out at 187 nM; at Human ASBT, 320 nM.

Consider `CCCC[C@]1(CC)CN(c2ccccc2)c2cc(N(C)C)c(O/C=C(\F)C(=O)O)cc2S(=O)(=O)C1` (single isomer, unassigned) [Example 110], for which the IC50 on Human LBAT was determined as 33 nM; at Human ASBT it was 138 nM.

Consider `CCCCC1(CCCC)CN(c2ccccc2)c2cc(SC)c(O/C=C/C(=O)O)cc2S(=O)(=O)C1` [Example 1, (E)-3-((3,3-dibutyl-7-(methylthio)-1,1-dioxido-5-phenyl-2,3,4,5-tetrahydro-1,5-benzothiazepin-8-yl)oxy)acrylic acid], for which the IC50 on Human LBAT stood at 145 nM; on Human ASBT, 70 nM.

`CCCCC1(CCCC)CN(c2ccccc2)c2cc(N(C)C)c(O/C=C/C(=O)O)cc2S(=O)(=O)C1` [Example 8, (E)-3-((3,3-dibutyl-7-(dimethylamino)-1,1-dioxido-5-phenyl-2,3,4,5-tetrahydro-1,5-benzothiazepin-8-yl)oxy)acrylic Acid]: the figures for the IC50 on Human LBAT and at Human ASBT were 1470 nM and 40 nM, respectively.

Take `CCCCC1(CCCC)CN(c2ccccc2)c2cc(SC)c(O/C=C(\F)C(=O)O)cc2S(=O)(=O)N1C` [Example 105, (Z)-3-((3,3-dibutyl-2-methyl-7-(methylthio)-1,1-dioxido-5-phenyl-2,3,4,5-tetrahydro-1,2,5-benzothiadiazepin-8-yl)oxy)-2-fluoroacrylic Acid]: the IC50 on Human LBAT was found to be 68 nM.

Broadly, the IC50 is the concentration needed to halve the response being measured.
